Conditions: 298.15 K

CCC(C)n1ncn(-c2ccc(N3CCN(c4ccc(OC[C@H]5CO[C@](Cn6cncn6)(c6ccc(Cl)cc6Cl)O5)cc4)CC3)cc2)c1=O (mixture of isomers)
Conditions | solubility (mole fraction)
in DMAc | 0.0118
in DMF | 0.0107
in DMSO | 0.00175
in NMP | 0.022
in THF | 0.00212
in acetone | 0.000637
in acetonitrile | 7.95e-05
in chloroform | 0.0504
in dichloromethane | 0.0327
in ethanol | 1.91e-05
in isopropanol | 2.14e-05
in methanol | 3.79e-05
in n-butanol | 2.3e-05
in n-propanol | 2.05e-05
in transcutol | 0.00073
in water | 2.43e-07
